Source: patent US4699914A, “Imidazole group containing 2(1H)-pyridones and method for treating heart insufficiencies in humans” (A. Nattermann & Cie GmbH, priority 1984, dated 1987)

Key:
Anaesthetized dog = test: Evaluation of the cardiotonic activity in vivo, anaesthetized dog; set-up: species or system dog (adult mongrel dogs of either sex); Blood Pressure: unit not given here; conditions: intravenous
Method: The effects of increasing doses of the drugs were measured upon intravenous administration to anaesthetized dogs. As parameters myocardial contractility, heart rate and arterial blood pressure were registered.
Adult mongrel dogs of either sex received a premedication of morphinhydrochloride (1.0 mg/kg s.c.). Thirty minutes later anaesthesia was induced by chloralose/urethane. The animals were heparinised with 500 I.U. heparin/kg (i.v.) as an initial dosage followed by doses of 250 I.U./kg given every 4 hours.
The trachea was intubated but the animals were allowed to breathe spontaneously. The test solutions were injected via a cannula in the vena cephalica antebrachii dextra. Arterial blood pressure was measured by a cannula in the femoral artery. In order to enable the registration of the myocardial contractility a Millar catheter tip pressure transducer was inserted into the left ventricle by way of the left carotid artery. Arterial blood pressure and left ventricular blood pressure were recorded continuously. Heart rate is triggered from the peak of the blood pressure signal.
From the left ventricular blood pressure the first derivative was calculated by a differentiator amplifier to give left ventricular dp/dt which was recorded as well. The compounds were solved in tetrahydrofurfurylalcohol polyethylene glycolether when necessary with additional heating.
Each dose of the test compounds was administered in a volume of 0.1 ml/kg, the duration of the injection was 1 minute.
The results with the tested compound representing the subject of invention 3,6-Dimethyl-5-[4-(1-imidazolyl)-2-thienyl]-2(1H)-pyridone-hydrochloride=Ain comparison with reference substance 4,5-Dihydro-6-[4-(1-imidazolyl)-phenyl]-3(2H)-pyridazinone ((CI 914, Drugs of the Future 9 (1984), 256)=B are given in the table 1.

human platelets = test: Inhibition of the collagen-induced platelets aggregation in vitro (method of Born); type: cell-based; conditions: read-out: IC50 (concentration which causes an aggregation inhibition of 50%), platelet rich human plasma
Method: The inhibition of the collagen-induced platelets aggregation in vitro was carried out by using the method of Born (Nature, 194, 927-929 (1962)) in using a platelet rich human plasma with the substances of the present invention 3,6-dimethyl-5-[-5-(1-imidazolyl)-2-thienyl]-2(1H)-pyridone-hydrochloride=C, 3,6-dimethyl-5-[4-(1-imidazolyl)phenyl]-2(1H)-pyridone-hydrochloride=D, 5-[4-(1-imidazolyl)-2-thienyl]-6-methyl-2(1H)-pyridone-hydrochloride=E in comparison with the reference substance acetylsalicyclic acid=F.

Water solubility = type: physicochemical; conditions: hydrochloride, in words

IC50 (human platelets)	Structure (SMILES)	Blood Pressure (Anaesthetized dog; 0.01 mg/kg)	Contractility (Anaesthetized dog; 0.01 mg/kg)	Heart Rate (Anaesthetized dog; 0.01 mg/kg)	Blood Pressure (Anaesthetized dog; 0.0316 mg/kg)	Contractility (Anaesthetized dog; 0.0316 mg/kg)	Heart Rate (Anaesthetized dog; 0.0316 mg/kg)	Blood Pressure (Anaesthetized dog; 0.1 mg/kg)	Contractility (Anaesthetized dog; 0.1 mg/kg)	Heart Rate (Anaesthetized dog; 0.1 mg/kg)	other results
0.44 µM	Cc1[nH]c(=O)c(C)cc1-c1ccc(-n2ccnc2)s1 [C]	–	–	–	–	–	–	–	–	–	–
0.54 µM	Cc1[nH]c(=O)ccc1-c1cc(-n2ccnc2)cs1 [E]	–	–	–	–	–	–	–	–	–	–

Further lines, the molecule ahead of its results:

Structure (SMILES)	IC50 (human platelets)	Blood Pressure (Anaesthetized dog; 0.01 mg/kg)	Contractility (Anaesthetized dog; 0.01 mg/kg)	Heart Rate (Anaesthetized dog; 0.01 mg/kg)	Blood Pressure (Anaesthetized dog; 0.0316 mg/kg)	Contractility (Anaesthetized dog; 0.0316 mg/kg)	Heart Rate (Anaesthetized dog; 0.0316 mg/kg)	Blood Pressure (Anaesthetized dog; 0.1 mg/kg)	Contractility (Anaesthetized dog; 0.1 mg/kg)	Heart Rate (Anaesthetized dog; 0.1 mg/kg)	other results
Cc1[nH]c(=O)c(C)cc1-c1cc(-n2ccnc2)cs1.Cl [A, 3,6-Dimethyl-5-[4-(1-imidazolyl)-2-thienyl]-2(1H)-pyridone-hydrochloride]	–	-0.2	+32.4	+5.9	-4.1	+83.3	+20.0	-17.4	+185.5	+32.1	–
O=C1CCC(c2ccc(-n3ccnc3)cc2)=NN1 [B, 4,5-Dihydro-6-[4-(1-imidazolyl)-phenyl]-3(2H)-pyridazinone, reference compound]	–	-1.3	+8.7	+3.6	-0.7	+25.5	+18.9	-10.4	+64.8	+15.4	–
Cc1[nH]c(=O)c(C)cc1-c1ccc(-n2ccnc2)cc1 [D]	0.37 µM	–	–	–	–	–	–	–	–	–	–
CC1=C(c2ccc(-n3ccnc3)cc2)CCC(=O)N1.Cl [Example 22, 3,4-dihydro-5-[4-(1-imidazolyl)-phenyl]-6-methyl-2(1H)-pyridone-hydrochloride]	–	–	–	–	–	–	–	–	–	–	water solubility (Water solubility): water soluble
